# Reference: patent publication US20110028561A1, “PROTECTION OF NEURAL RETINA BY REDUCTION OF ROD METABOLISM” (CHILDREN'S MEDICAL CENTER CORPORATION, priority 2008, published 2011)
# “Also recorded” adds a separate entry of the source.
# How the values were obtained:
# [1] = test system: visual cycle; details: mouse, dose 6 mg/kg; cited from earlier work
# [2] = test system: rats with oxygen-induced retinopathy (OIR); test: Recovery of the rod dark current from a rhodopsin-bleaching stimulus in OIR rats (Example 2); assay type: in vivo, rat (Sprague-Dawley); details: 30 second bleaching exposure, 6 mg/kg IP, vs vehicle, t50 often extrapolated
# Description: Retinopathy was induced in Sprague-Dawley pups (N=46) by exposing them to alternating 24 hour periods of 50±1% and 10±1% oxygen from the day of birth to postnatal day (P) 14 as shown in FIG. 1. The light cycle was controlled at 12 hours 10-30 lux and 12 hours dark, except during test days when constant darkness was maintained. The light-to-dark transition was timed to coincide with each oxygen alternation. For two weeks, beginning on P7, during this transition, the first and fourth litters were injected intraperitoneally with 6 mg*kg-1 Ret-NH2; the second and third litters were administered an equivalent volume of vehicle (20% dimethyl sulfoxide, DMSO) alone. […] The rats were assessed following a longitudinal design with tests at P20-22, P30-32, and P60-62. […]
# Shortly (0-2 days) after the final dose, the effects of the drug were assessed on the neural retina by electroretinography (ERG). […] In the first, rod and rod-mediated neural function in the dark-adapted retina were assessed. In the second, the recovery of the rod photoreceptor from a bright, rhodopsin-bleaching stimulus was assessed. […]
# In the second set of experiments, performed on cohorts (n=22), the recovery of the dark current was assessed from a 30 second light exposure estimated to bleach […] of rhodopsin. […] Following the bleaching exposure, the response to the PF was assessed at two minute intervals for 40-50 minutes. […]
# [3] = test system: rats with oxygen-induced retinopathy (OIR); test: Arteriolar tortuosity from fundus images analysed with RISA in OIR rats (Example 2); assay type: in vivo, rat (Sprague-Dawley)
# Description: (§1) Retinopathy was induced in Sprague-Dawley pups (N=46) by exposing them to alternating 24 hour periods of 50±1% and 10±1% oxygen from the day of birth to postnatal day (P) 14 as shown in FIG. 1. The light cycle was controlled at 12 hours 10-30 lux and 12 hours dark, except during test days when constant darkness was maintained. The light-to-dark transition was timed to coincide with each oxygen alternation. For two weeks, beginning on P7, during this transition, the first and fourth litters were injected intraperitoneally with 6 mg*kg-1 Ret-NH2; the second and third litters were administered an equivalent volume of vehicle (20% dimethyl sulfoxide, DMSO) alone. The injection schedule was designed to continue over the age range that begins with the onset of rapid increase in the rhodopsin content of the retina and lasts until rhodopsin content exceeds 50% of its adult amount (A. B. Fulton, and B. N. Baker, Invest Ophthalmol Vis Sci (1984) 25:647). […] The rats were assessed following a longitudinal design with tests at P20-22, P30-32, and P60-62. These dates were selected because they capture the height of vascular abnormality, a period of marked recovery, and an adult age, respectively (J. D. Akula, et al., Invest Ophthalmol Vis Sci (2007) 48:4351). At each test age, we studied the function of the neural retina and the morphology of the retinal vasculature using noninvasive techniques.
# To assess whether VCM treatment affected the retinal vasculature, wide-field images of the ocular fundus were obtained that show the major vessels of the retina following each ERG session. […] The arterioles were analyzed with RISA (R. Gelman, M. E. Invest Ophthalmol Vis Sci (2005) 46: 4734) custom image analysis software. In agreement with previous reports (J. D. Akula, Invest Ophthalmol Vis Sci (2007) 48:4351; K. Liu, et al., Invest Ophthalmol Vis Sci (2006) 47:2639), the venules were little affected by the induction of retinopathy. […] For each rat, the mean blood vessel integrated curvature across both eyes (median 10 arterioles) was determined to provide a measure of arteriolar tortuosity, TA (radians*pixel^−1), a measure which agrees well with subjective assessments in human subjects (R. Gelman, M. E. Invest Ophthalmol Vis Sci (2005) 46: 4734). […] To test this, the value of TA at P20 was subtracted from the value of TA at P60 in each rat to determine the change in arteriolar tortuosity during the course of the experiment.
# [4] = test system: rats with oxygen-induced retinopathy (OIR); test: Electroretinography in rats with oxygen-induced retinopathy (Example 1); assay type: in vivo, rat (Sprague-Dawley)
# Source text: Rats with oxygen-induced retinopathy (OIR) are a common model of human retinopathy of prematurity (ROP). Both OIR and ROP are characterized by abnormal retinal vasculature and by lasting dysfunction of the neural retina. Recent findings in OIR rats imply a causal role for the rods in the ROP disease process. However, experimental manipulation of rod function is necessary to establish this role conclusively. The retinoid composition N-Retinylacetamide (all trans), of chemical composition C22H33NO “the drug” was administered in the rat OIR model of ROP.
# OIR was induced in four litters of Sprague-Dawley pups (N=24) by exposure to alternating periods of 50% and 10% oxygen from the day of birth (P0) to P14. The light cycle was 12 hr light (10-30 lux) and 12 hr dark; the light-to-dark transition coincided with each oxygen alternation. For 15 days beginning P7, within one hour of this transition, the first and fourth litters were administered 6 mg/kg drug IP; the second and third litters received only vehicle. At P20-22, when marked retinal vascular abnormality is generally observed, electroretinograms were recorded and receptor and post-receptor function evaluated. Treatment effects were evaluated by ANOVA.
# [5] = test system: rats with oxygen-induced retinopathy (OIR); test: ERG of rod and rod-mediated neural function in the dark-adapted retina of OIR rats (Example 2); assay type: in vivo, rat (Sprague-Dawley); details: for magnitude of the rod response (Rmp3): p<0.001, most markedly at P30-32, vs vehicle; for recovery from phototransduction, latency to 50% recovery τ: double-flash paradigm
# Description: as §1
# Shortly (0-2 days) after the final dose, the effects of the drug were assessed on the neural retina by electroretinography (ERG). The timing and intensity of the stimuli, which was designed to assess rod photoreceptor and rod-mediated post-receptor neural function, were under computer control. Two sets of experiments were performed. In the first, rod and rod-mediated neural function in the dark-adapted retina were assessed. In the second, the recovery of the rod photoreceptor from a bright, rhodopsin-bleaching stimulus was assessed. Each set of experiments was performed on approximately half of the subjects from each litter.
# Sample traces were recorded these from a P30-32 VCM-treated rat; the sample records in panels D, E, and G were recorded in the same session. Characteristics of the rod photo-response were estimated from the ERG by fitting the Hood and Birch (D. C. Hood, and D. G. Birch, Vis Neurosci (1992) 8:107) formulation of the Lamb and Pugh (T. D. Lamb, and E. N. Pugh, Jr., J Physiol (1992) 449:719; E. N. Pugh, Jr., and T. D. Lamb, Biochim Biophys Acta (1993) 1141:111) model of the biochemical processes involved in the activation of photo-transduction to the a-wave:
# P3(i,t)=Rmp3·(1−exp(−½·i·S·(t−td)^2))
# In this equation, i is the intensity of the flash (R*) and t is elapsed time (seconds). The free parameters in the model, Rmp3, S, and td, were ensemble fitted using a square error minimization routine. Rmp3 is the amplitude (μV) of the saturated rod response; it is proportional to the magnitude of the dark current and depends upon the number of channels available for closure by light in the ROS (T. D. Lamb, and E. N. Pugh, Jr., J Physiol (1992) 449:719; E. N. Pugh, Jr., and T. D. Lamb, Biochim Biophys Acta (1993) 1141:111). S is a sensitivity (R*-1*sec-2) parameter that is related to the amplification constant, A, which summarizes the kinetics of the series of processes initiated by the photoisomerization of rhodopsin and resulting in closure of the channels in the plasma membrane of the photoreceptor. td is a brief delay (sec). Fitting of the model was restricted to the leading edge of the a-wave.
# Following the study of the activation of phototransduction, deactivation of phototransduction was studied in the same rats using a double-flash paradigm. The time course of the rod response was derived to a green conditioning flash (CF) producing approximately 75 R*. This green flash, while producing an a-wave less than half of the saturated rod response, was nevertheless sufficient to fully suppress the dark current. […]
# [6] = OIR rats, 6 mg/kg IP for 15 days from P7, ERG at P20-22, vs vehicle
smiles,measurement,setting,value
"CC(=O)NC/C=C(C)/C=C/C=C(C)/C=C/C1=C(C)CCCC1(C)C [N-Retinylacetamide, N-Retinylacetamide (all trans)]",suppression of the visual cycle,[1],approximately 50%
same,time to 50% recovery of the saturating rod photo-response after bleach (t50),[2],not significantly altered overall
same,"arteriolar tortuosity TA, main effect","[3]; OIR rats, 6 mg/kg IP, P20-22 to P60-62, vs vehicle",no main effect
same,appearance of vascular abnormalities,"[3]; OIR rats, VCM regimen 6 mg/kg IP",did not prevent the appearance of vascular abnormalities
same,change in arteriolar tortuosity ΔP60-P20 (vascular recovery),"[3]; TA at P60 minus TA at P20, t-test p=0.001",more than twice the normal amount
same,recovery of arteriolar tortuosity TA,"[3]; group x age interaction p=0.002, VCM vs vehicle treated rats",recovered more rapidly
same,"serious, negative alteration of the photoreceptor response","[4]; OIR rats after treatment, 6 mg/kg IP","no evidence of serious, negative alteration"
same,effect on responses originating in the inner retina,"[4]; OIR rats, 6 mg/kg IP",favorable effect
same,amplification constant of phototransduction,[4]; [6],Neither the maximal rod response nor the amplification constant of phototransduction were significantly changed
same,maximal rod response,[4]; [6],Neither the maximal rod response nor the amplification constant of phototransduction were significantly changed
same,post-receptor sensitivity (log s),"[4]; OIR rats, 6 mg/kg IP, P20-22, vs vehicle",unchanged
same,OFF response to a 400 ms stimulus,"[4]; background that suppressed the saturating a-wave by ~90%, drug-treated vs vehicle-treated OIR rats, P20-22",2 ×
same,time-constant of deactivation of phototransduction,"[4]; double-flash protocol, OIR rats, 6 mg/kg IP, P20-22, vs vehicle",significantly shorter
same,maximal scotopic b-wave amplitude,"[4]; drug-treated vs vehicle-treated OIR rats, 6 mg/kg IP, P20-22",twice as large
same,cone-driven response to 20 Hz flicker,"[4]; same background, drug-treated vs vehicle-treated OIR rats, P20-22",2 ×
same,unfavorable effects of rod function,[5]; 6 mg/kg IP,No unfavorable effects
same,rod response sensitivity (S),"[5]; 6 mg/kg IP two weeks from P7, tests P20-22, P30-32, P60-62, ANOVA vs vehicle, listed as VCM, 6 mg/kg","no statistically significant effect; also recorded: not significant, but did trend lower at every age"
same,magnitude of the rod response (Rmp3),"[5]; 6 mg/kg IP, listed as Ret-NH2, 6 mg/kg",larger
same,magnitude of the rod response (Rmp3),"[5]; 6 mg/kg IP, listed as VCM, 6 mg/kg",significantly increased
same,post-receptor sensitivity (log σ),"[5]; ERG b-wave, Naka-Rushton fit, 6 mg/kg IP, vs vehicle",not affected
same,saturated amplitude of the b-wave (Vm),"[5]; ERG b-wave, Naka-Rushton fit, 6 mg/kg IP, vs vehicle, listed as Ret-NH2, 6 mg/kg",larger
same,saturated amplitude of the b-wave (Vm),"[5]; ERG b-wave, Naka-Rushton fit, 6 mg/kg IP, vs vehicle, listed as VCM, 6 mg/kg",significantly (p<0.01) increased
same,rod-mediated retinal function (photoreceptor and post-receptor neurons),[5]; P20-22 and P30-32,"improved at the earliest test age (P20-22), and even more markedly improved at the second (P30-32)"
same,"recovery from phototransduction, latency to 50% recovery τ","[5]; 6 mg/kg IP, vs vehicle, listed as Ret-NH2, 6 mg/kg",faster recovery
same,"recovery from phototransduction, latency to 50% recovery τ","[5]; 6 mg/kg IP, vs vehicle, listed as VCM, 6 mg/kg",significantly (p<0.01) faster
same,effect on rod function,[5]; summary of ERG data,"advantageous, if transient, effect"
same,post-receptor function,[5]; summary of ERG data,transient enhancement
